Where two headings read alike, the source gives them in different places.
Key:
[1] = Solubility in DMSO (stock preparation); type: physicochemical; details: stocks at 1 mg/mL
Procedure: We subsequently conducted serial dilution of the stock solutions with the optimized mobile phase to obtain stocks (S1) for ENF and BNB at a 100 µg/mL concentration. The S1 stocks were then serially diluted with mobile phase to obtain stocks (S2) for ENF and BNB at a 10 µg/mL concentration. The AVB stock was dissolved in DMSO to obtain a 100 µg/mL concentration that was then serially diluted with the mobile phase to obtain a stock (S3) of AVB at a 1 µg/mL concentration.

[2] = Metabolic stability after incubation with human liver microsomes (LC-MS/MS); type: in vitro ADME; details: for Slope (rate constant of disappearance, ln % remaining vs time): HLM; for half-life at 1 µM / microsomal CLint at 1 µM: human, human liver microsomes, HLM 1 mg/mL; for half-life at 1 µM: NADPH 1 mM, 37 °C, read-out: in vitro t1/2 (half-life); for microsomal CLint at 1 µM: read-out: CLint (intrinsic clearance)
Procedure: The slope of each regression equation was used to estimate the in vitro t1/2 using the following equations:(1) In vitro t 1/2=ln2/slope (2) In vitro t 1/2=0.693/slope
Similarly, the CLint of ENF and BNB was calculated following the in vitro t1/2 method (15) using the following equation:(3) CLint, =0.693/in vitro t 1/2. µL incubation/mg microsomes (4) CLint, =0.693/in vitro t 1/2. 1000 /1
BNB and ENF concentration during HLM incubation was adjusted to 1 µM to ensure that it was less than the Michaelis–Menten constant and constructed a linear relationship between the ratio of metabolism and incubation time. HLMs (1 mg/mL) in phosphate buffer were used to confirm the absence of nonspecific protein binding. We performed metabolic stability assessments for ENF and BNB by measuring the decrease in ENF and BNB concentrations after incubation with an HLM matrix. One micromole from ENF and BNB was incubated with HLM (1 mg protein in 1 mL phosphate buffer) in triplicate. The metabolic reaction medium was phosphate buffer (pH 7.4) containing 3.3 mM MgCl2. The metabolic mixture was pre-incubated in a 37 °C water bath for 10 min for temperature conditioning. NADPH (1 mM) was used for the initiation of the metabolic reaction, after which 2 mL ACN was used to terminate the reaction at specific time intervals (0, 1, 2.5, 7.5, 15, 30, and 50 min), allowing us to establish metabolic stability curves for ENF and BNB. We conducted this metabolic experiment for ENF alone, BNB alone, and a mixture of ENF and BNB to evaluate the metabolic stability of BNB and ENF alone and combined. The proportion of BNB and ENF remaining either alone or combined was plotted versus incubation time. From this plot, time points in the linear range were selected to plot the natural logarithm (ln) of the remaining proportions of ENF and BNB versus time. The slope of the linear part indicated the rate constant for ENF and BNB disappearance that was used for in vitro t1/2 calculation using equation (1). Then, ENF and BNB CLint values, either alone or combined, were calculated by applying the following Equation (3).

[3] = Stability in deactivated HLM matrix under laboratory storage conditions; type: physicochemical
Procedure: We evaluated the stability of ENF and BNB in deactivated HLM matrix (1 mg protein/1 mL phosphate buffer) under common laboratory storage conditions. Analyte stability evaluation was performed in different conditions: Room temperature for 8 h, three freeze–thaw cycles, storage at 4 °C for 24 h, and storage at −20 °C for 30 d. Measured values were 96.55–101.64% for ENF and 96.79–100.05% for BNB. Stability data for ENF and BNB are described in Table 4. […] The stability data reveal that the LC–MS/MS method could be successfully used for assaying ENF and BNB without noticeable loss.
The accuracy and precision of the proposed method were investigated inter- and intra-day. The intra- and inter-day accuracy and precision values were calculated according to USFDA guidelines. The stability of ENF and BNB in different conditions, room temperature for 8 h, three freeze–thaw cycles, and storage at 4 °C for 24 h and at −20 °C for 30 d, were examined.

[4] = pH 7.4, in mixture of ENF and BNB
[5] = room temperature for 8 h, 15 ng/mL
[6] = room temperature for 8 h, 150 ng/mL
[7] = room temperature for 8 h, 400 ng/mL
[8] = stored at 4 °C for 24 h, 400 ng/mL
[9] = stored at −20 °C for 30 days, 15 ng/mL
[10] = stored at −20 °C for 30 days, 150 ng/mL
[11] = stored at −20 °C for 30 days, 400 ng/mL
[12] = three freeze–thaw cycles, 15 ng/mL
[13] = three freeze–thaw cycles, 150 ng/mL
[14] = three freeze–thaw cycles, 400 ng/mL

Solubility in DMSO [1] | Slope (rate constant of disappearance, ln % remaining vs time) ([2]; drug alone) | half-life at 1 µM ([2]; pH 7.4, drug alone) [min] | microsomal CLint at 1 µM ([2]; pH 7.4, drug alone) [µL/min/mg] | half-life at 1 µM [2, 4] [min] | microsomal CLint at 1 µM [2, 4] [µL/min/mg] | Slope (rate constant of disappearance, ln % remaining vs time) ([2]; in mixture of ENF and BNB) | Stability, measured values over all storage conditions ([3]; room temperature 8 h, three freeze–thaw cycles, 4 °C 24 h, −20 °C 30 d) | Recovery % [3, 5] [%] | Recovery % [3, 6] [%] | Recovery % [3, 7] [%] | Recovery % [3, 8] [%] | Recovery % [3, 9] [%] | Recovery % [3, 10] [%] | Recovery % [3, 11] [%] | Recovery % [3, 12] [%] | Recovery % [3, 13] [%] | Recovery % [3, 14] [%] | Recovery % ([3]; stored at 4 °C for 24 h, 15 ng/mL) [%] | Recovery % ([3]; stored at 4 °C for 24 h, 150 ng/mL) [%] | Structure (SMILES)
freely soluble | – | – | – | – | – | – | – | – | – | – | – | – | – | – | – | – | – | – | – | C=CC(=O)Nc1cccc(Oc2nc(Nc3ccc(N4CCN(C)CC4)c(F)c3)nc3[nH]ccc23)c1 [AVB, avitinib]
freely soluble | 0.0161 | 43.1 | 16.1 | 45.9 | 15.1 | 0.0151 | 96.55–101.64% | 101.64 | 100.55 | 101.46 | 98.21 | 100.18 | 96.55 | 98.41 | 97.37 | 97.22 | 99.66 | – | – | COC(=O)N[C@@H](C)CNc1nccc(-c2cn(C(C)C)nc2-c2cc(Cl)cc(NS(C)(=O)=O)c2F)n1 [ENF, encorafenib]
freely soluble | 0.0115 | 60.3 | 11.5 | 58.2 | 11.9 | 0.0119 | – | 99.25 | 98.25 | 98.85 | 99.33 | 96.72 | 97.72 | 98.78 | 98.32 | 96.79 | 97.48 | 100.05 | 97.59 | Cn1cnc2c(F)c(Nc3ccc(Br)cc3F)c(C(=O)NOCCO)cc21 [BNB, binimetinib]
